This note sets out measurements from US10183914B2 (BAYER CROPSCIENCE AKTIENGESELLSCHAFT, priority 2014, dated 2019).

One series deals with Viola tricolor. Nature of the series: Pre-emergence herbicidal effect. The series is classed as in vivo. Conditions: 3 weeks. From the text: (§1) Seeds of monocotyledonous and dicotyledonous weed plants and crop plants are laid out in wood-fiber pots in sandy loam and covered with soil. The compounds of the invention, formulated in the form of wettable powders (WP) or as emulsion concentrates (EC), are then applied to the surface of the covering soil as aqueous suspension or emulsion at a water application rate equating to 600 to 800 L/ha with addition of 0.2% wetting agent.
(§2) After the treatment, the pots are placed in a greenhouse and kept under good growth conditions for the trial plants. The damage to the trial plants is scored visually after a trial duration of 3 weeks by comparison with untreated controls (herbicidal activity in percent (%): 100% efficacy=the plants have died, 0% efficacy=like control plants).

A further series has as its system Stellaria media. Nature of the series: Pre-emergence herbicidal effect. The series is classed as in vivo. Conditions: 3 weeks.
Excerpt: as §1, §2

The subject of a further series is Setaria viridis. Put plainly: Pre-emergence herbicidal effect. Conditions: 1280 g/ha, 3 weeks. The format is in vivo.
Excerpt: as §1, §2

A further series concerns Amaranthus retroflexus. Put plainly: Pre-emergence herbicidal effect. The settings on record: 3 weeks. The format is in vivo.
Excerpt: as §1, §2

The test system of the next series is Veronica persica. Nature of the series: Pre-emergence herbicidal effect. The series is classed as in vivo. The settings on record: 3 weeks.
Excerpt: as §1, §2

Series [1] in a line: logp (HCOOH), physicochemical characterization.
The test system of a further series is Zea mays. Put plainly: Pre-emergence herbicidal effect and crop plant compatibility. The series is classed as in vivo. The settings on record: 3 weeks.
Excerpt: as §1, §2

The subject of the next series is Polygonum convolvulus. Nature of the series: Pre-emergence herbicidal effect. The series is classed as in vivo. The settings on record: 1280 g/ha, 3 weeks.
Excerpt: as §1, §2

The next series concerns Matricaria inodora. Put plainly: Pre-emergence herbicidal effect. The series is classed as in vivo. The settings on record: 3 weeks.
Excerpt: as §1, §2

Series [2] concerns Triticum aestivum (spring). Put plainly: Pre-emergence herbicidal effect and crop plant compatibility. The series is classed as in vivo. Conditions: 3 weeks.
Excerpt: as §1, §2

The next series has as its system Oryza sativa. The description is as above. The format is in vivo. The settings on record: 3 weeks.
Excerpt: as §1, §2

In a further series the test system is Echinochloa crus-galli. Put plainly: Pre-emergence herbicidal effect. The format is in vivo. The settings on record: 320 g/ha, 3 weeks.
Excerpt: as §1, §2

Molecules are shown by their SMILES.

`Cc1ccc2c(c1)[C@H](Nc1ncc3c(n1)CC(c1ccccc1F)CC3=O)[C@@H](C)C2` (stereo partly shown) [2.50]: the “VIOTR herbicidal activity in percent” value in the series with Viola tricolor (320 g/ha) and in the series on Viola tricolor (1280 g/ha) was 90% in each case. The “STEME herbicidal activity in percent” value in the series on Stellaria media (320 g/ha) and with Stellaria media (1280 g/ha) was 100% throughout. The “SETVI herbicidal activity in percent” value with Setaria viridis was 80%. Moreover, the “AMARE herbicidal activity in percent” value in the series on Amaranthus retroflexus (1280 g/ha) turned out to be 100%. The “VERPE herbicidal activity in percent” value in the series with Veronica persica (320 g/ha) and with Veronica persica (1280 g/ha) was 100% throughout. Further, the “logp (HCOOH)” value in [1] is reported as “oily; logp (HCOOH): 4.86; 1H-NMR (CDCl3, 400 MHZ, δ in ppm): 1.25 (t, 3H, CH3);”. For the same compound, the “ZEAMX herbicidal activity in percent” value with Zea mays (320 g/ha) and with Zea mays (1280 g/ha) was 0% throughout.

Consider `CC1Cc2cc(Cl)ccc2C1Nc1ncc2c(n1)CCCC2=O` (racemic) [2.108], for which the “logp (HCOOH)” value in [1] is listed as “oily; logp (HCOOH): 3.58; 1H-NMR (CDCl3, 400 MHZ, δ in ppm): 1.25 (d, 3H, CH3);”.

`CC1CCC(Nc2ncc3c(n2)CCCC3=O)c2ccccc21` (racemic) [2.111]: the “logp (HCOOH)” value in series [1] is recorded as “oily; logp (HCOOH): 3.37; 1H-NMR (CDCl3, 400 MHZ, δ in ppm): 1.35 (d, 3H, 3H”.

Take `COc1ccc2c(c1)CCCC2Nc1ncc2c(n1)CCCC2=O` (racemic) [2.109]: the “logp (HCOOH)” value in series [1] is recorded as “solid; m.p.: 151.3° C.; logp (HCOOH): 2.83; 1H-NMR (CDCl3, 400 MHZ, δ in ppm):”.

Take `CC(C)c1ccc2c(c1)C(Nc1ncc3c(n1)CCCC3=O)CC2` (racemic) [2.107]: the “logp (HCOOH)” value in series [1] is recorded as “oily; logp (HCOOH): 3.83; 1H-NMR (CDCl3, 400 MHZ, δ in ppm): 1.20 (d, 6H,”.

`CC(=O)c1cnc(N[C@@H]2CCc3c(C)cc(C)cc32)nc1` [1.95]: the “logp (HCOOH)” value in series [1] is “solid; m.p.: 153.0° C.; logp (HCOOH): 3.45; 1H-NMR (CDCl3, 400 MHZ, δ in ppm):”.

As to `CC(=O)c1cnc(NC2c3ccccc3CCC2C)nc1` (racemic) [1.20], the “VIOTR herbicidal activity in percent” value is listed as 90% in the series with Viola tricolor (320 g/ha) and 100% with Viola tricolor (1280 g/ha). Also, the “STEME herbicidal activity in percent” value in the series with Stellaria media (320 g/ha) and with Stellaria media (1280 g/ha) was 100% throughout. Also, the “POLCO herbicidal activity in percent” value in the series on Polygonum convolvulus came to 100%. Also, the “AMARE herbicidal activity in percent” value in the series on Amaranthus retroflexus (320 g/ha) was found to be 90%; in the series on Amaranthus retroflexus (1280 g/ha), 100%. Also, the “MATIN herbicidal activity in percent” value in the series on Matricaria inodora (320 g/ha) is reported as 90%; in the series with Matricaria inodora (1280 g/ha) it was 100%. The “VERPE herbicidal activity in percent” value with Veronica persica (320 g/ha) and in the series on Veronica persica (1280 g/ha) was 100% throughout. For the same compound, the “logp (HCOOH)” value in [1] was “oily; logp (HCOOH): 2.93; 1H-NMR (CDCl3, 400 MHZ, δ in ppm): 1.05 (d, 3H, CH3);”. Further, in series [2] (320 g/ha), the “TRZAS herbicidal activity in percent” value is on record as 20%. Moreover, the “ZEAMX herbicidal activity in percent” value in the series with Zea mays (320 g/ha) and in the series with Zea mays (1280 g/ha) was 0% each time.

`CC(=O)c1cnc(N[C@H]2c3cc(C)ccc3C[C@@H]2C)nc1` [1.10] had a chromatographic logP in [1] (HCOOH) of 2.99.

For `COc1ccc2c(c1)OC(C)(C)CC2Nc1ncc(C(C)=O)c(C)n1` (racemic) [1.96], the “logp (HCOOH)” value in series [1] was “solid; m.p.: 183.5° C.; logp (HCOOH): 3.12; 1H-NMR (CDCl3, 400 MHZ, δ in ppm):”.

Take `COc1ccc2c(c1)CCC2Nc1ncc(C(C)=O)c(C)n1` (racemic) [1.92]: in the series with Viola tricolor (320 g/ha), the “VIOTR herbicidal activity in percent” value came to 100%. The “AMARE herbicidal activity in percent” value in the series with Amaranthus retroflexus (80 g/ha) and in the series with Amaranthus retroflexus (320 g/ha) was 100% throughout. Besides, in the series on Matricaria inodora (320 g/ha), the “MATIN herbicidal activity in percent” value is 100%. The “VERPE herbicidal activity in percent” value in the series with Veronica persica (80 g/ha) and with Veronica persica (320 g/ha) was 100% in each case. For the same compound, the “TRZAS herbicidal activity in percent” value in series [2] (80 g/ha) and in series [2] (320 g/ha) was 0% throughout. Moreover, the “ORYSA herbicidal activity in percent” value in the series with Oryza sativa (320 g/ha) came out at 0%. The “ZEAMX herbicidal activity in percent” value in the series with Zea mays (80 g/ha) and in the series on Zea mays (320 g/ha) was 20% each time.

As for `CCC1Cc2ccc(C)cc2C1Nc1ncc2c(n1)CCCC2=O` (racemic) [2.106], in [1], the “logp (HCOOH)” value is listed as “oily; logp (HCOOH): 3.90; 1H-NMR (CDCl3, 400 MHZ, δ in ppm): 0.95 (t, 3H, CH3);”.

With `O=C1CCCc2nc(NC3CCOc4c(Cl)cccc43)ncc21` (racemic) [2.84], in series [1], the “logp (HCOOH)” value is on record as “oily; logp (HCOOH): 2.75; 1H-NMR (CDCl3, 400 MHZ, δ in ppm): 2.15 (m, 3H, 2H”.

In the case of `CC(=O)c1cnc(N[C@@H]2CCc3ccccc32)nc1C` [1.89], the results for the “VIOTR herbicidal activity in percent” value with Viola tricolor (80 g/ha) and in the series on Viola tricolor (320 g/ha) were 90% and 100%, respectively. In addition, the “STEME herbicidal activity in percent” value in the series with Stellaria media (80 g/ha) and in the series on Stellaria media (320 g/ha) was 80% each time. Besides, the “AMARE herbicidal activity in percent” value in the series with Amaranthus retroflexus (320 g/ha) was found to be 100%. The “MATIN herbicidal activity in percent” value in the series with Matricaria inodora (80 g/ha) and with Matricaria inodora (320 g/ha) was 100% in each case. The “VERPE herbicidal activity in percent” value was 80% with Veronica persica (80 g/ha) and 100% in the series with Veronica persica (320 g/ha). The “logp (HCOOH)” value in series [1] is “solid; logp (HCOOH): 2.80; 1H-NMR (CDCl3, 400 MHZ, δ in ppm: 1.90 (m, 1H, 1H”. In addition, the “TRZAS herbicidal activity in percent” value in series [2] (80 g/ha) and in [2] (320 g/ha) was 0% in each case. Further, the “ORYSA herbicidal activity in percent” value in the series on Oryza sativa (320 g/ha) is recorded as 0%. The “ZEAMX herbicidal activity in percent” value in the series on Zea mays (80 g/ha) and in the series on Zea mays (320 g/ha) was 0% throughout.

Consider `O=C1CCCc2nc(NC3CCSc4ccc(F)cc43)ncc21` (racemic) [2.114], for which the “logp (HCOOH)” value in series [1] is “oily; logp (HCOOH): 2.77; 1H-NMR (CDCl3, 400 MHZ, δ in ppm): 2.10 (m, 2H, 2H”.

`CC1CCc2ccccc2C1Nc1ncc2c(n1)CC(C)(C)CC2=O` (racemic) [2.95]: the “VIOTR herbicidal activity in percent” value in the series with Viola tricolor (320 g/ha) was determined as 100%. Further, the “STEME herbicidal activity in percent” value in the series on Stellaria media (80 g/ha) and in the series with Stellaria media (320 g/ha) was 100% throughout. In addition, the “ECHCG herbicidal activity in percent” value in the series on Echinochloa crus-galli is on record as 80%. Further, the “AMARE herbicidal activity in percent” value in the series with Amaranthus retroflexus (80 g/ha) and in the series on Amaranthus retroflexus (320 g/ha) was 100% in each case. In addition, the “MATIN herbicidal activity in percent” value in the series with Matricaria inodora (80 g/ha) and in the series with Matricaria inodora (320 g/ha) was 90% in each case. Moreover, the “VERPE herbicidal activity in percent” value with Veronica persica (80 g/ha) and in the series on Veronica persica (320 g/ha) was 100% throughout. Besides, in series [1], the “logp (HCOOH)” value is listed as “oily; logp (HCOOH): 4.02; 1H-NMR (CDCl3, 400 MHZ, δ in ppm): 1.10 (s + d, 9H,”. Also, the “TRZAS herbicidal activity in percent” value in series [2] (80 g/ha) and in [2] (320 g/ha) was 0% each time. The “ORYSA herbicidal activity in percent” value with Oryza sativa (80 g/ha) and with Oryza sativa (320 g/ha) was 0% throughout. The “ZEAMX herbicidal activity in percent” value in the series with Zea mays (80 g/ha) and with Zea mays (320 g/ha) was 0% throughout.

As for `CC(=O)c1c(C)nc(NC2CCSc3c(F)cccc32)nc1C` (racemic) [1.65], the “logp (HCOOH)” value in [1] is listed as “solid; logp (HCOOH): 2.93; 1H-NMR (CDCl3, 400 MHZ, δ in ppm): 2.20 (m, 1H, 1H”.

For `O=C1CCCc2nc(N[C@@H]3CCc4ccccc43)ncc21` [2.38], the “logp (HCOOH)” value in series [1] is on record as “oily; logp (HCOOH): 4.84; 1H-NMR (CDCl3, 400 MHZ, δ in ppm): 1.85 (m, 1H, 1H”.

For `Cc1ccc2c(c1)[C@H](Nc1ncc3c(n1)CCCC3=O)CC2` [2.41], the “logp (HCOOH)” value in [1] is recorded as “oily; logp (HCOOH): 3.21; 1H-NMR (CDCl3, 400 MHZ, δ in ppm): 1.95 (m, 1H, 1H”.
